From patent publication US20220265770A1, “TREATING NEURODEGENERATIVE DISEASES WITH PROGRANULIN” (NEURODYN, INC., priority 2008, published 2022)
Entries after “also recorded” stand apart in the source; their conditions may differ.

Key:
[1] = system: caudal primary motor neurons of zebrafish embryos; assay: Zebrafish ventral primary motor axon/nerve growth (znp1 immunostaining); type: in vivo
From the text: During the first day of zebrafish development, neuromuscular connections are restricted to the three primary motoneurons (CaP, MiP and RoP) per spinal cord hemisegment where they innervate three myotome areas that ultimately develop into body wall muscle. During the first the 24 hpf CaP axons project to establish the common pathway. This is the developmental period encompassed in FIGS. 27 and 28.
Development of ventral primary neurons were examined in whole mount embryos at 26-28 hpf and visualized by immunostaining with znp1 monoclonal antibody that labels primary motor neurons.
There is reduced incidence (P<0.001) of truncated neurons (FIG. 27, Panel D, white arrows) together with increased incidence (P<0.001) of early and late branching (FIG. 27, Panel E, white arrowheads) as shown in Table 2. Data sets were accumulated from 50 embryos (WT, progranulin MO, progranulin MO plus mRNA).
Fish husbandry: Wild type zebrafish were purchased from Aquatica Tropicals (Florida) and maintained on a 14 h/10 h light/dark cycle at 28.5° C. in a laboratory aquarium (Allentown Caging Equipment Co. Inc., Allentown, N.J.). Fish were fed twice daily. In the late afternoon of the day before eggs are required, fish were transferred to a net positioned towards the top of a holding tank and covered. In the morning, after the light cycle begins and spawning has stopped, the eggs that have fallen through the net were collected from the bottom of the tank. Embryos to be used for developmental studies were collected and staged by hours post fertilization (hpf). […]
Microinjection of Pgrn mRNA: For Pgrn mRNA over-expression and rescue experiments the vector was generated as follows: The full-length progranulin-a sequence was purchased from RZPD (Berlin, Germany) as clone UCDMp574E2318Q2 and subcloned into pcDNA3.1-V5/His vector (Invitrogen, Carlsbad, Calif.) using a forward primer that overlapped with the starter AUG a reverse primer that read through the termination codon. […]

male CD-1 mice [2] = assay: Leg extension reflex following synthetic BSSG exposure; type: in vivo, mouse; details: 100 mg/day synthetic BSSG for 15 weeks, then normal chow; weekly, week 0-32, vs control p<0.0001
Procedure: Three month old male CD-1 mice were fed 100 mg/day of synthetic BSSG for 15 weeks, then permitted to age with a diet of normal lab chow. Leg extension was measured weekly from the initiation of the experiment. Testing was performed as described in Wilson et al., 2004 and Wilson et al., 2005.
The leg extension reflex test was used as a measure of motor neuron dysfunction (Barneoud and Curet, 1999). This test was altered to discriminate more subtle behaviors, creating a scale from 0 to 4. […] This scale allows the measure of progression in a continuous manner over time. A score of 0-4 is assigned based on the response shown by the mouse as follows:
4: Complete extension of both legs (normal).
3: Two legs extended with some tremors and/or punching in a leg.
2: One leg extended, 1 retracted, or tremors in both legs.
1: One leg retracted, tremors in other leg.

male CD-1 mice [3] = assay: Open field motor activity (grid crossings) following synthetic BSSG exposure; type: in vivo, mouse; details: same mice as Example 4; week 28 vs controls, p<0.05
Procedure: The same mice exposed to BSSG in Example 4 were used to analyze open field motor activity. *=p<0.05 (Student T-test).
For the open field motor activity analysis, mice were placed in a round open field (2 m diameter) for 5 minutes and movements were recorded using a video camera to measure emotionality and exploration (spontaneous motor activity) (Karl et al., 2003). Videos were replayed on a TV and a circular grid was overlaid on the TV screen. Grid crossings were recorded.

[4] = system: motor neurons in lumbar cord; assay: Motor neuron quantification (Nissl, ChAT, CTIP2, caspase-3) after 10 weeks BSSG; type: in vivo, mouse; details: varying doses of synthetic BSSG for 10 weeks, aged 1 or 5 months on normal chow
From the text: Six month old male CD-1 mice were fed varying doses of synthetic BSSG for 10 weeks, then allowed to age for 1 month with a diet of normal chow prior to sacrifice (see FIG. 3, panels A-C). Motor neurons were quantified in lumbar cord, by Nissl staining and choline acetyltransferase (ChAT) immunohistochemistry (IHC), as shown in FIG. 3A. Motor neurons were quantified in motor cortex where neurons were detected by IHC against CTIP2 (highly expressed in corticospinal motor neurons), as shown in FIG. 3C. Motor neurons in the lumbar spinal cord of animals permitted to age for 5 months following the cessation of BSSG were quantified after Nissl staining, as shown in FIG. 3D (* P<0.01, ANOVA).
Lumbar spinal cord sections were stained with cresyl violet and ventral horn motor neurons were counted under a 40× objective lens. All motor neurons in the field of view were included in the results. Multiple sections (N=6) from each mouse were used. Counts were conducted on spinal cord sections that were at least 150 μm apart (in the rostral-caudal plane) ensuring that no motor neuron was counted twice. In addition, counts included all apparent motor neurons including motor neurons that may have appeared atrophic or damaged.
Active caspase-3 (Promega, Madison, Wis.) labeling was performed as follows. […] Sections were visualized using fluorescence microscopy. […]

progranulin expression = assay: In situ hybridization of progranulin expression in cervical spinal cord of BSSG fed mice; type: in vivo, mouse
Procedure: Adult male CD-1 mice were fed a diet of either normal chow or chow containing […] per day of synthetic BSSG. Following 10 weeks of feeding with BSSG-containing chow and a further month with normal lab chow, mice were killed and ISH using progranulin specific antisense riboprobes was performed on frozen sections of cervical spinal cord cut in trans-section. High levels of progranulin expression were detected in the anterior horn cells of the control mouse as shown by the section in FIG. 9A. […] A negative control section is shown in FIG. 9C, incubated with a sense probe.
Adult male CD-1 mice were fed a diet of chow containing 10, 100, or 1000 μg per day of synthetic BSSG. Following 10 weeks of feeding with BSSG-containing chow and a further month with normal lab chow, mice were killed and ISH using progranulin specific riboprobes was performed on frozen sections of cervical spinal cord cut in trans-section. […] Additionally, there is a more pronounced loss of progranulin expression per cell as BSSG exposure increases.

spinal motor neurons = assay: Spinal motor neuron counts and ChAT in BSSG challenged mice treated with PGRN lentivirus; type: in vivo, mouse
NSC-34 cells [5] = details: literature (Tabata et al.); cited from earlier work
NSC-34 cells [6] = assay: NSC-34 proliferation/survival with granulin epithelin modules (CyQUANT NF); type: cell-based; details: 50 or 100 ng/ml, 13 days, RPMI without serum
Procedure: NSC 34 cells (5000 cell/well) were plated in 96 well plates using 100 ul of DMEM/10% FBS. The following day, the medium was removed and replaced with 100 ul of RPMI (without serum) containing: 0, 50 or 100 ng/ml of grn D or grn F. Cultures were incubated for 13 days following which cell proliferation/survival was determined using the CyQUANT® NF (kit #C35006) assay.
The CyQUANT® NF assay is based on measurement of cellular DNA content via fluorescent dye binding. The extent of proliferation/survival is determined by comparing fluorescence intensity for NSC-34 cells treated with GEMs (50 and 100 ng) relative to untreated controls (Ong).
As per the manufacturers instructions, the protocol included aspiration of growth medium, replacement with 100 ul of dye binding solution per well, incubation for 30 minutes following which the fluorescence intensity of each sample was measured using a fluorescence microplate reader with excitation at ˜485 nm and emission detection at ˜530 nm (FIG. 22). The immortalized motor neuron cell line (NSC-34) responded to incubation with grn F and grn D with either proliferation/survival (grn F) or no effect (grn D) similar to the response of extra neuronal cells incubated in the presence of these GEM's (described in: Tolkatchev D. et al., Protein Sci. 17:711-724, 2008).

[7] = Table 2, average number of motor axon/nerve defects per affected side, n=50, 10 ng PgrnA MO, 100 pg mRNA, 26-28 hpf

## PGRN-MO2: morpholino to 5′UTR of zebrafish pgrn-a, 5′-GAGCAGGTGGATTTGTGAACAGCGG-3′ (all phosphorodiamidate morpholino (PMO))
[1]; [7]
  Branching: 1.0 ± 0.19*c
  Truncation: 3.02 ± 0.31***a
[1]; whole mount embryos 26-28 hpf, znp1
  primary motor neuron phenotype: range of morphant phenotypes

## CC[C@H](CC[C@@H](C)[C@H]1CC[C@H]2[C@@H]3CC=C4C[C@@H](O[C@@H]5O[C@H](CO)[C@@H](O)[C@H](O)[C@H]5O)CC[C@]4(C)[C@H]3CC[C@]12C)C(C)C [BSSG, β-sitosterol β-D-glucoside]
Male CD-1 mice [2]
  leg extension reflex (score 0-4): decline in leg extension reflex
Male CD-1 mice [3]
  open field motor activity (grid crossing): significantly decreased movement
[4]
  motor neurons in lumbar spinal cord: Progressive loss of motor neurons; also recorded: dose dependent loss of motor neuron health
Progranulin expression; 10, 100 or 1000 μg per day BSSG, 10 weeks plus 1 month normal chow
  neuropathology and loss of progranulin expressing cells in cervical spinal cord: more pronounced neuropathology
Progranulin expression; 1000 μs per day synthetic BSSG 10 weeks plus 1 month normal chow
  progranulin expression in anterior horn cells of cervical spinal cord (ISH): decreased in intensity and was observed in fewer cells of the anterior horn
Spinal motor neurons; control (saline treated) BSSG exposed mice
  numbers of ChAT positive motor neurons: appeared to be reduced
Spinal motor neurons; saline treated BSSG exposed mice relative to all other treatment groups
  choline acetyl transferase (ChAT) activity in anterior horn cells: decreased activity
NSC-34 cells [5]
  cytotoxicity in NSC-34 cell line: cause cytotoxicity

B1: grn D: granulin epithelin module, SEQ ID NO: 10, His-tagged (protein)
chain: AMDIGCDQHTSCPVGQTCCPSLGGSWACCQLPHAVCCEDRQHCCPAGYTCNVKARSCEKLAAALEHHHHHH
modifications: His tag
NSC-34 cells [6]
  cell proliferation/survival (CyQUANT NF fluorescence): no effect
